Assays:
[1] = system: acyl-CoA:cholesterol acyltransferase (ACAT); test: Inhibitory activity on acyl-CoA:cholesterol acyltransferase (ACAT), microsomal fraction of intestinal mucosa, [1-14C]oleyl-CoA incorporation into cholesterol esters; assay type: biochemical, white rabbit; settings: compound concentration 0.01 µm; rabbit intestinal mucosa microsomes
Description: The enzyme used in the test was prepared according to the method of Heider et al. [J. Lipid Res. 24, 1127 (1983)]. A white rabbit was killed by blood-letting under anesthesia, after which its intestinal mucosa was collected and then homogenized, and microsomal fraction was obtained by stepwise centrifugation. The microsomal fraction was suspended in 0.154 M phosphate buffer (pH 7.4) and stored at -80°C until use.
ACAT activity was determined by a modification of the method of Helgerud et al. [J. Lipid Res. 22, 271 (1981)] by measuring radioactivity incorporated into cholesterol esters from [1-^14C]oleyl-CoA, as an indication. As to the ACAT-inhibitory activity of each compound to be tested, the inhibition rate was calculated by the following equation. Inhibition rate (%) =([ACAT activity of control group which was given solvent]-[ACAT activity of group treated with compound to be tested])/([ACAT activity of control group which was given solvent])x 100 [formula]

[2] = system: rats fed on a high-cholesterol diet; test: Serum cholesterol lowering activity in rats fed on a high-cholesterol diet; assay type: in vivo, Male Sprague-Dawley rats; settings: Rattus norvegicus, 96 h; total serum cholesterol; 30 mg per kg of body weight per day for 4 days, suspended in 0.5% carboxymethyl cellulose; blood 24 hours after last administration; read-out: Reduction rate (%)
Description: Male Sprague-Dawley rats of 6-week-old were divided into three groups. The first group (normal group) was fed an ordinary diet for 4 days. The second group (control group) was fed a high cholesterol diet (containing 1.0% cholesterol, 1.0% cholic acid and 8.5% coconut oil) for 4 days. The third group (treated group) was fed a high cholesterol diet and was treated with a compound for 4 days.
Simultaneously with the beginning of the above feeding, the compound was suspended in a 0.5% carboxymethyl cellulose solution and administered to the treated group, in a dose of 30 mg (in terms of the compound) per kg of body weight per day for 4 days. A 0.5% carboxymethyl cellulose solution was also administered to the normal group and the control group in the same manner as above.
After 24 hours of the last administration, blood was collected and the cholesterol concentration in serum was measured by an enzymatic method. The reduction rate of the total serum cholesterol concentration was calculated from values obtained for the three groups by the following equation. Choresterol reduction rate (%) =((A) - (B))/((A) - (C))x 100 [formula] wherein A: the serum cholesterol concentration of the control group. B: the serum cholesterol concentration of the treated group. C: the serum cholesterol concentration of the normal group.

Inhibition rate % [1]: 80.4%
SMILES: CC(C)c1cccc(C(C)C)c1NC(=O)Nc1nc(-c2ccccc2)n(Cc2ccccc2)c1-c1ccccc1Cl [Compound 37, N-[1-Benzyl-5-(2-chlorophenyl)-2-phenylimidazol-4-yl]-N'-(2,6-diisopropylphenyl)urea]
inhibition in vivo at 30 mg/kg [2]: 59%

Reference: patent publication EP0761658A1, “Azole-phenyl urea derivatives as ACAT inhibitors and their production” (NIHON NOHYAKU CO., LTD., priority 1995, dated 1997)
